{
  "source": "patent US20210139497A1",
  "about": "“THIENOCYCLIC COMPOUND AND SYNTHESIS METHOD THEREFOR AND APPLICATION THEREOF” (SHANGHAI YUYAO BIOTECH LTD., priority 2017, published 2021)",
  "key": {"[1]": {"assay": "Cytotoxicity evaluation (CCK8), MOSJ", "conditions": "mouse, MOSJ osteosarcoma cells", "quoted_text": "(§4) Cells with a density of 2000-8000 cells per 100 μL medium were seeded in 96-well plates (Falcon, CA) and incubated for 24 hours, then treated with drugs having different concentration gradient (at least 4 replicates per concentration) and incubated at 37° C. in 5% CO2 incubator for 72 hours. Then cell viability was detected by CCK8 method. That is to say, add 10 μL CCK8 to each well and incubate for 0.33-2 h, and the OD values are read by microplate reader at 450 nm. The inhibition rate on cell survival of compounds with each concentration were calculated.\n(§5) Inhibition rate on cell survival=(OD value of groups with each concentration/OD\n(§6) value of control group)×100%±standard deviation.\n(§7) The IC50 of drugs were calculated using GraphPad Prism 5.0."}, "[2]": {"test_system": "pancreatic cancer cells Pan02", "assay": "Pan02 subcutaneous tumor-bearing model, C57BL/6 mice", "type": "in vivo, mouse", "conditions": "female C57BL/6 mice, 75 mg/kg/day, 12-22 days, FIG. 4", "text": "(§1) Mouse colon cancer cells MC38, pancreatic cancer cells Pan02, breast cancer cells 4T1, prostate cancer cells RM-1 and colon cancer cells CT26 were cultivated to required amount. Then, cells at a cell density of 5×10^5-2×10^6 were subcutaneously injected into right side of the back of selected female C57BL/6 mice aging 6-8 weeks (MC38, Pan02), male C57BL/6 mice aging 6-8 weeks (RM-1), female Balb/c mice aging 6-8 weeks (4T1, CT26) and female Balb/c nude mice aging 6-8 weeks (CT26). The length and width of subcutaneous tumors in the backs of mice were measured using vernier calipers, and tumor volume(mm^3)=(length(mm)×width(mm)×width(mm)×n)/6 was calculated. […] The volume of subcutaneous tumors on the back of mice was measured and counted 2-4 times a week. Continuous administrated for 12-22 days and the changes of tumor volumes were recorded."}, "[3]": {"molecular_target": "T1, human prostaglandin E2 receptor EP3 subtype (Homo sapiens, UniProt P43115)", "T1 construct": "expressed in transfected cells; host or cells: CHO-K1-Gα16", "T1 sequence (P43115 1-390)": "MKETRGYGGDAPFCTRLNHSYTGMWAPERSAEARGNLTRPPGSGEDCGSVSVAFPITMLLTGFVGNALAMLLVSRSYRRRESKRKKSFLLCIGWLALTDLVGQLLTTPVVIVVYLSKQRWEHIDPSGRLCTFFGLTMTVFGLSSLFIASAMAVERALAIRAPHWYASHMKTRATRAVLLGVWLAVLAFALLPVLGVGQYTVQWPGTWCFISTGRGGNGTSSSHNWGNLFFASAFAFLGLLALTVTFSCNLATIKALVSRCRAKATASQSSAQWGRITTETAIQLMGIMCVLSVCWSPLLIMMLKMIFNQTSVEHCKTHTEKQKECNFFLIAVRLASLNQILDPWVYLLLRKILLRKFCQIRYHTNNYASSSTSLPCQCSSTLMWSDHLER", "assay": "Calcium flux of human prostaglandin E2 receptor EP3 subtype", "type": "cell-based", "conditions": "CHO-K1-Gα16 cells overexpressing human EP3, activated by prostaglandin E2; read-out: hEP3 Ca^2+ IC50", "experimental": "(§2) CHO-K1-Gα16 cells at the logarithmic growth phase were transfected with human prostaglandin E2 Receptor subtypes EP1, EP2 or EP3 overexpressing vector by Lipofectamine 2000, then seeded in a 96-well plate (Falcon, CA) at a density of 20000 cells per 100 μL culture medium for overnight culture. On the second day, every single well were added with 100 μL calcium 5 detection reagents (Molecular Devices) and incubated in incubator at 37° C., 5% CO2 for 45 minutes. The compounds were diluted with HBSS detection buffer, then were added to 96-well plates. After 20 min incubation at room temperature in the dark, prostaglandin E2 at certain concentration was used to activate calcium flux of cells for detection (Flexstation 3, MD, CA).\n(§3) Calculate the IC50 of the compounds of the invention in inhibiting the calcium flux of human EP1, EP2, and EP3 receptor (i.e. the concentration of drugs at which the intracellular Ca^2+ flux being inhibited by half after overexpressing human EP1, EP2, and EP3 receptors in CHO-K1-Gα16 cells). The IC50 of the drugs were calculated using GraphPad Prism 5."}, "breast cancer cells 4T1": {"test_system": "breast cancer cells 4T1", "assay": "4T1 subcutaneous tumor-bearing model, Balb/c mice", "type": "in vivo, mouse", "conditions": "female Balb/c mice, 75 mg/kg/day, 12-22 days, FIG. 4", "text": "as §1"}, "[4]": {"assay": "Cytotoxicity evaluation (CCK8), EMT-6", "conditions": "mouse, EMT-6 breast cancer cells", "quoted_text": "as §4, §5, §6, §7"}, "[5]": {"assay": "Cytotoxicity evaluation (CCK8), PANC02", "conditions": "mouse, PANC02 pancreatic cancer cells", "quoted_text": "as §4, §5, §6, §7"}, "[6]": {"molecular_target": "T2, human prostaglandin E2 receptor EP1 subtype (Homo sapiens, UniProt P34995)", "T2 construct": "expressed in transfected cells; host or cells: CHO-K1-Gα16", "T2 sequence (P34995 1-402)": "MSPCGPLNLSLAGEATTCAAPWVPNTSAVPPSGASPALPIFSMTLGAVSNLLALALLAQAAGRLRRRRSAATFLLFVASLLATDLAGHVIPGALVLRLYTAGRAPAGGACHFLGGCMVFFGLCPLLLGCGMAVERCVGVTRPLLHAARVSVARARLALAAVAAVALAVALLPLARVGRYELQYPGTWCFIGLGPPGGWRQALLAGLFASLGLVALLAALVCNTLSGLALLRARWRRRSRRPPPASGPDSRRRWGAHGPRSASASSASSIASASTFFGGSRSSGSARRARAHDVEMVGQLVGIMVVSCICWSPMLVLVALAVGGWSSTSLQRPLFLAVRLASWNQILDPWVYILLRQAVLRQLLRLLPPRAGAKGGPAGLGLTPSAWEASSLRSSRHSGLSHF", "assay": "Calcium flux of human prostaglandin E2 receptor EP1 subtype", "type": "cell-based", "conditions": "CHO-K1-Gα16 cells overexpressing human EP1, activated by prostaglandin E2; read-out: hEP1 Ca^2+ IC50", "experimental": "as §2, §3"}, "[7]": {"test_system": "mouse colon cancer cells MC38", "assay": "MC38 subcutaneous tumor-bearing model, C57BL/6 mice", "type": "in vivo", "conditions": "female C57BL/6 mice, 75 mg/kg/day, 12-22 days, FIG. 4", "text": "as §1"}, "[8]": {"assay": "Cytotoxicity evaluation (CCK8), LLC", "conditions": "mouse, LLC lung cancer cells", "quoted_text": "as §4, §5, §6, §7"}, "[9]": {"assay": "Cytotoxicity evaluation (CCK8), 293", "conditions": "human"}, "[10]": {"assay": "Cytotoxicity evaluation (CCK8), CT26", "conditions": "mouse, CT26 intestinal cancer cells", "quoted_text": "as §4, §5, §6, §7"}, "colon cancer cells CT26": {"test_system": "colon cancer cells CT26", "assay": "CT26 subcutaneous tumor-bearing model, Balb/c nude mice", "type": "in vivo, mouse", "conditions": "female Balb/c nude mice, 75 mg/kg/day", "text": "as §1"}, "[11]": {"test_system": "prostate cancer cells RM-1", "assay": "RM-1 subcutaneous tumor-bearing model, C57BL/6 mice", "type": "in vivo, mouse", "conditions": "male C57BL/6 mice, 75 mg/kg/day, 12-22 days, FIG. 4", "text": "as §1"}, "[12]": {"molecular_target": "T3, human prostaglandin E2 receptor EP2 subtype (Homo sapiens, UniProt P43116)", "T3 construct": "expressed in transfected cells; host or cells: CHO-K1-Gα16", "T3 sequence (P43116 whole entry)": "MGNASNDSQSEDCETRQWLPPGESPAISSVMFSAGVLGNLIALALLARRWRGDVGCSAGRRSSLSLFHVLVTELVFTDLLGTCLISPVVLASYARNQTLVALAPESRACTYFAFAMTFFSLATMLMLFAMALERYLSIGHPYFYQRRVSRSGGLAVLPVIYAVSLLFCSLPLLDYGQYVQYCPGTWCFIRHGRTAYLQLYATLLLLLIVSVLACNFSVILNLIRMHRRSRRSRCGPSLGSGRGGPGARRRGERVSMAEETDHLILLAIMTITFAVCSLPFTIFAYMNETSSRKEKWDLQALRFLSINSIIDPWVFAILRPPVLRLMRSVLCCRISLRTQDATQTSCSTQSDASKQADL", "assay": "Calcium flux of human prostaglandin E2 receptor EP2 subtype", "type": "cell-based", "conditions": "CHO-K1-Gα16 cells overexpressing human EP2, activated by prostaglandin E2; read-out: hEP2 Ca^2+ IC50", "experimental": "as §2, §3"}, "[13]": {"test_system": "mouse colon cancer cells CT26", "assay": "CT26 subcutaneous tumor-bearing model, Balb/c mice", "type": "in vivo", "conditions": "female Balb/c mice, 75 mg/kg/day", "experimental": "2×10^6 mouse colon cancer cells CT26 were subcutaneously injected into right side of each mouse's back (female Balb/c mouse, 6-8 weeks). The length and width of subcutaneous tumors in the back of mice were measured using vernier calipers, and tumor volume (mm^3)=(length(mm)×width(mm)×width(mm)×n)/6 was calculated. […] The volume of subcutaneous tumors on the back of mice was measured and counted twice a week. Continuous administrated for a period of 14 days and the changes of tumor volumes were recorded.\nas §1"}},
  "data": [
    {"smiles": "C[C@H](NC(=O)c1c(Cc2ccc(F)cc2)sc2c1CCOC2)c1ccc(C(=O)O)cc1", "note": "[YJ114, (S)-4-(1-(2-(4-fluorobenzyl)-5,7-dihydro-4H-thieno[2,3-c]pyran-3-carboxamido)ethyl)benzoic Acid]", "values": [
      {"measurement": "IC50 at 72 h", "setting": "[1]", "result": "> 100", "unit": "µM"},
      {"measurement": "Inhibition of growth of pancreatic cancer cells Pan02 in subcutaneous tumor-bearing mice", "setting": "[2]", "result": "can efficiently inhibit the growth"},
      {"measurement": "IC50", "setting": "[3]", "result": "> 10", "unit": "µM"},
      {"measurement": "Inhibition of growth of breast cancer cells 4T1 in subcutaneous tumor-bearing mice", "setting": "breast cancer cells 4T1", "result": "can efficiently inhibit the growth"},
      {"measurement": "IC50 at 72 h", "setting": "[4]", "result": "> 100", "unit": "µM"},
      {"measurement": "IC50 at 72 h", "setting": "[5]", "result": "> 100", "unit": "µM"},
      {"measurement": "IC50", "setting": "[6]", "result": "> 10", "unit": "µM"},
      {"measurement": "Inhibition of growth of colon cancer cells MC38 in subcutaneous tumor-bearing mice", "setting": "[7]", "result": "can efficiently inhibit the growth"},
      {"measurement": "IC50 at 72 h", "setting": "[8]", "result": "> 100", "unit": "µM"},
      {"measurement": "IC50 at 72 h", "setting": "[9]", "result": "> 100", "unit": "µM"},
      {"measurement": "IC50 at 72 h", "setting": "[10]", "result": "> 100", "unit": "µM"},
      {"measurement": "Inhibition of CT26 tumor growth in Balb/c nude mice with immune system deficiency", "setting": "colon cancer cells CT26", "result": "can not inhibit the tumor growth"},
      {"measurement": "Inhibition of growth of prostate cancer cells RM-1 in subcutaneous tumor-bearing mice", "setting": "[11]", "result": "can efficiently inhibit the growth"},
      {"measurement": "IC50", "setting": "[12]", "result": "> 10", "unit": "µM"},
      {"measurement": "Inhibition of growth of colon cancer cells CT26 in subcutaneous tumor-bearing mice", "setting": "[13]; 12 to 22-day administration (Example 6)", "result": "can efficiently inhibit the growth"},
      {"measurement": "Inhibitory effect on growth of subcutaneous CT26 colon cancer", "setting": "[13]; 14 days, vs negative control, FIG. 3", "result": "able to suppress the growth"}
    ]}
  ]
}
